Literature values, collected in US8173686B2, “Use of picoplatin to treat colorectal cancer” (priority 2006, dated 2012).

Details: in vivo

## N.N.O=C([O-])C1(C(=O)[O-])CCC1.[Pt+2] [carboplatin]
  main / dose-limiting toxicity: myelosuppression
